Values joined by “and” are separate entries in the source; they are usually repeats but may differ in a detail not shown here. Equal values may be shown once.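 Cells were grown in 96-well plates and exposed to each compound for 48 hours at five concentrations; endpoints were interpolated linearly between bracketing concentrations, or set to the highest concentration if not reached. At the GI50, growth is halved. TGI: concentration producing complete growth inhibition.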
Columns and labels:
Experiment in all cases: inhibition of tumour cell growth, NCI panel, 48 h
[1] = tested on: M14 melanoma
[2] = tested on: SF-539 CNS
[3] = tested on: 786-0 renal
[4] = tested on: PC-3 prostate
[5] = tested on: U251 CNS
[6] = tested on: SR leukemia
[7] = tested on: NCI/ADR-RES ovarian
[8] = tested on: COLO 205 colon
[9] = tested on: TK-10 renal
[10] = tested on: NCI-H226 lung
[11] = tested on: UO-31 renal

SMILES	TGI [1]	TGI [2]	TGI [3]	TGI [4]	TGI [5]	TGI [6]	TGI [7]	TGI [8]	TGI [9]	TGI [10]	TGI [11]	GI50 [6]	GI50 [1] [µM]	GI50 [2] [µM]	GI50 [11] [µM]	GI50 [5] [µM]	GI50 [7] [µM]	GI50 [8] [µM]	GI50 [9] [µM]	GI50 [4] [µM]
CO/N=C(\C)c1cccc(Nc2nc3ccccc3c3occc23)c1	30.7 µM	26.9 µM	26.7 µM	28.2 µM	33.2 µM	34.2 µM	30.7 µM	24.5 µM	26 µM	7.38 µM										
Nc1nc(OCC2CCCCC2)c2[nH]cnc2n1	57.8 µM	45 µM	> 88.1 µM	41.2 µM	> 73.7 µM	> 59.1 µM	> 100 µM	> 56.9 µM	30.5 µM	73.7 µM	38.2 µM									
O=C(NC(Cc1ccc(I)cc1)C(=O)O)c1ccc(Cl)cc1 (stereo not drawn)		> 100 µM			> 100 µM		> 100 µM	> 100 µM		> 100 µM	> 100 µM									
CCSc1nc(-c2cccs2)nc2ccc(I)cc12	> 100 µM	> 100 µM	> 100 µM	> 100 µM	> 100 µM	> 100 µM	> 100 µM	> 100 µM	> 100 µM	> 100 µM	> 100 µM									
CC1CC(Br)C(=O)O1 (stereo not drawn)	> 100 µM	> 100 µM		> 100 µM	> 100 µM		> 100 µM	> 100 µM	> 100 µM		> 100 µM									
NCCNCCNc1ccc(NCCNCCN)c2c1C(=O)c1c(O)ccc(O)c1C2=O	> 100 µM	> 100 µM	> 100 µM	> 100 µM	> 100 µM	23.8 µM	> 100 µM	> 100 µM	> 100 µM	> 100 µM	> 100 µM									
c1ccc([P+](c2ccccc2)(c2ccccc2)c2ccc(-c3ccc([P+](c4ccccc4)(c4ccccc4)c4ccccc4)cc3)cc2)cc1	> 100 µM	> 100 µM	> 100 µM	73.9 µM	> 100 µM		> 100 µM	31.5 µM	> 100 µM	71 µM										
Cc1c2cc[n+](C)cc2c(C)c2c1oc1ccccc12	31.5 µM	13 µM	31.8 µM	37.8 µM	3.37 µM	30.5 µM	> 100 µM	14.8 µM	98.8 µM	10.1 µM	> 100 µM									
O=C1OC2(OC2c2ccc(Cl)cc2)c2ccccc21 (stereo not drawn)	> 100 µM	> 100 µM				> 100 µM		> 100 µM	> 100 µM	> 100 µM	> 100 µM									
CN(C)CCCN1c2ccc([N+](=O)[O-])cc2CCc2cc([N+](=O)[O-])ccc21	31 µM and 28 µM	30.6 µM and 37.8 µM	24.5 µM and 27.5 µM	31.3 µM and 27 µM	30.2 µM and 27.6 µM	> 100 µM and 31.4 µM	30.8 µM and 32.6 µM	32 µM and 29.4 µM	23.3 µM and 24.3 µM	32.8 µM and 33.4 µM	37.4 µM and 25 µM	30.4 µM and 13.1 µM								
COc1ccc2c(c1)/C(=C\c1c(Cl)n(-c3ccccc3)c3ccccc13)C(=O)N2	15 µM	41.6 µM	29.2 µM	> 100 µM	38.5 µM	> 100 µM	7.98 µM	21.9 µM	84.4 µM	24.5 µM	18.3 µM									
CCOC(=O)Nc1cc2c(c(N)n1)N=C(c1ccc3ccccc3c1)CN2	17.5 µM	0.427 µM	3.81 µM	24.7 µM	> 100 µM	> 100 µM	0.16 µM		> 60.7 µM	3.5 µM	> 62.9 µM									
C[N+](C)(C)CCN[N+]1(C)CCCc2ccccc21 (stereo not drawn)	> 100 µM	> 100 µM	> 100 µM	> 100 µM	> 100 µM	> 100 µM	> 100 µM	> 100 µM	> 100 µM	> 100 µM	> 100 µM									
COc1cc([N+](=O)[O-])ccc1NC(=O)c1cccc([N+](=O)[O-])c1O	> 100 µM	75.2 µM			> 100 µM	> 100 µM		40.3 µM		> 100 µM	56.5 µM									
CC1(C=O)CCC23COC4(CCC5C6(C)CCC(OC7OCC(OC8OC(CO)C(O)C(OC9OC(CO)C(O)C(O)C9O)C8OC8OCC(O)C(O)C8O)C(O)C7OC7OC(CO)C(O)C(O)C7O)C(C)(C)C6CCC5(C)C4(C)CC2O)C3C1 (stereo not drawn)	2.85 µM	2.63 µM	2.43 µM	2.67 µM	> 100 µM	0.617 µM	1.05 µM	2.56 µM	3.33 µM	3.47 µM	2.8 µM									
CS(=O)(=O)OCCN(CCOS(C)(=O)=O)c1ccc(/C=N/Nc2ncnc3nc[nH]c23)cc1	34.1 µM	49.4 µM	45.5 µM		53.5 µM	46 µM		31.7 µM	63.6 µM	51.7 µM	92 µM									
Cc1ccc([N+](=O)[O-])cc1S(=O)(=O)Nc1ccc(C2=NOC(c3ccccc3O)C2)cc1 (stereo not drawn)	6.85 µM	> 100 µM	> 100 µM	> 100 µM		13.4 µM	8.53 µM	19.8 µM	> 100 µM	> 100 µM	1.34 µM									
O=c1c2cc(S(=O)(=O)O)ccc2nc(COc2ccc(Oc3ccc(Cl)cc3Cl)cc2)n1C(=S)Nc1ccc(Cl)cc1	40.9 µM	31.9 µM	40.4 µM	> 100 µM	35.5 µM	22.9 µM	37.9 µM	34.1 µM	40.4 µM	42.4 µM	29.7 µM									
O=C1CSC(c2ccccc2O)N1c1nc2cc3sc(N4C(=O)CSC4c4ccccc4O)nc3cc2s1 (stereo not drawn)	> 100 µM	> 100 µM	> 100 µM	> 100 µM	> 100 µM	> 100 µM	> 100 µM	> 100 µM	> 100 µM	> 88.1 µM	> 100 µM									
N=C(N)SCc1cccc([N+](=O)[O-])c1		68.3 µM			97.3 µM		48.3 µM	47.9 µM		67.2 µM	> 77.8 µM									

SMILES	TGI [1]	TGI [2]	TGI [3]	TGI [4]	TGI [5]	TGI [6]	TGI [7]	TGI [8]	TGI [9]	TGI [10]	TGI [11]	GI50 [6]	GI50 [1] [µM]	GI50 [2] [µM]	GI50 [11] [µM]	GI50 [5] [µM]	GI50 [7] [µM]	GI50 [8] [µM]	GI50 [9] [µM]	GI50 [4] [µM]
O=C1N(CN2CCOCC2)CN(CN2CCOCC2)C(=O)N1Cc1ccc(CN2C(=O)N(CN3CCOCC3)CN(CN3CCOCC3)C2=O)cc1	> 100 µM	> 100 µM	> 100 µM	> 100 µM	> 100 µM	> 100 µM	> 100 µM	> 100 µM	> 100 µM	> 100 µM	> 100 µM									
C[n+]1c2ccccc2c(CNC(CS)C(=O)O)c2ccccc21 (stereo not drawn)	> 100 µM	35.8 µM	> 100 µM		66.7 µM	32.4 µM		47.8 µM	> 100 µM	82.1 µM	58 µM									
Cc1[nH]n(-c2ccccc2)c(=O)c1C(N(CCc1ccccc1)C1=NCC(C)S1)(C(F)(F)F)C(F)(F)F (stereo not drawn)	32.2 µM	32.3 µM	34.9 µM	84.9 µM	31.2 µM	90.4 µM	89 µM	18.7 µM	> 100 µM	29.5 µM	25.3 µM									
Oc1ccc(-c2nc3cc(F)ccc3s2)cc1	47.6 µM		92.6 µM	60 µM	42.6 µM	16 µM	42.4 µM	33.9 µM	56 µM	39.7 µM	49.9 µM									
COC(=O)/C=C1\CCCN1CCc1cc2c(cc1CC#N)OCO2	> 100 µM	> 100 µM	> 100 µM	> 100 µM	> 100 µM	> 100 µM	> 100 µM	> 100 µM	> 100 µM	> 100 µM	> 100 µM									
CCOP(=O)(OCC)C(Nc1cccc(F)c1)c1ccc(N(C)C)cc1 (stereo not drawn)	> 100 µM	> 100 µM		> 100 µM	> 100 µM	> 100 µM	> 100 µM	> 100 µM	> 100 µM	> 100 µM	> 100 µM									
CC1C(=O)C(C)C(c2ccco2)N(N=O)C1c1ccco1 (stereo not drawn)		> 100 µM			> 100 µM		> 100 µM	> 100 µM		> 100 µM	> 100 µM									
CN(C)c1ccc(/C=c2/c3ccccc3n3c2cc(NC(=O)NCCC[N+](C)(C)C)[n+]3C)cc1	> 100 µM	> 100 µM	> 100 µM	> 100 µM	> 100 µM	> 100 µM	> 100 µM	> 100 µM	> 100 µM		> 100 µM									
N=c1oc2ccc(Cl)cc2cc1C(N)=O	> 100 µM	> 100 µM	73 µM	72.8 µM	> 100 µM	> 100 µM	> 100 µM	> 100 µM		78.1 µM										
O=C(CSc1nc2ccc(I)cc2c(=O)n1Cc1ccccc1)NN1C(=O)c2ccccc2C1=O	> 100 µM	15.5 µM	> 100 µM	19.6 µM	30.1 µM	> 100 µM	42.8 µM	> 100 µM	30.4 µM	23.5 µM	6.14 µM									
COc1cc([N+](=O)[O-])ccc1N1C(=O)C2c3[nH]c4ccccc4c3C3CCC(C(C)(C)C)CC3C2C1=O (stereo not drawn)	40.5 µM	> 100 µM		> 100 µM	25.4 µM	> 100 µM	> 100 µM	> 100 µM	> 100 µM	> 100 µM	> 100 µM									
CSc1ccc(/C=C2\N=C(c3ccccc3)N(/N=C3\C(=O)Nc4ccccc43)C2=O)cc1	> 100 µM	> 100 µM	> 100 µM	> 100 µM	> 100 µM	> 100 µM	> 100 µM	> 100 µM	> 100 µM		> 100 µM									
Nc1nnc2oc3ccc4ccccc4c3cc1-2	> 100 µM		> 100 µM	> 100 µM	> 100 µM	72.7 µM	> 100 µM	56.8 µM	> 100 µM	80.7 µM	> 100 µM									
CCc1ccc2c(c1)C(=O)c1c-2n(CCCN)c(=O)c2cc([N+](=O)[O-])ccc12	3.08 µM	3.01 µM			2.29 µM		3.29 µM	2.51 µM	2.49 µM		2.69 µM		1.56	1.6	1.38	1.07	1.62	1.21	1.2	
N#C/C(C(=O)Nc1ccc(Cl)cc1)=C(/N)N1CCOCC1	> 100 µM	> 100 µM	> 100 µM	> 100 µM	> 100 µM	> 100 µM	> 100 µM	> 100 µM		> 100 µM	> 100 µM									
COC(=O)NC1C(C)OC(OC2C/C=C(/C)C3C=CC4C(OC5CC(OC6CC(OC7CC(O)C(O)C(C)O7)C(OC7CC(O)C(OC)C(C)O7)C(C)O6)C(O)C(C)O5)C(C)CC(C)C4C3(C)/C(O)=C3\C(=O)OC4(CC(C)C(CO)=CC4/C=C\2C)C3=O)CC1(C)[N+](=O)[O-] (stereo not drawn)	77 µM	> 100 µM	7.08 µM	> 100 µM	44.9 µM	24.2 µM	> 100 µM	36.2 µM	40.6 µM		51.3 µM									
CC1(O)COCCCCOc2c(CN)cccc2NC(=O)c2nc(cnc2N)-c2ccc(cc2)S(=O)(=O)C(C)(C)C1 (stereo not drawn)		1.67 µM		2.54 µM	2.22 µM	0.391 µM	4.02 µM	2.17 µM	3.34 µM		2.31 µM	< 0.01 µM		0.03	1.06	0.715	1.71	0.546	1.64	1.18
c1c2c(cc3c1OCO3)-c1cc3ccc4c(c3c[n+]1CC2)OCO4	5.9 µM	3.12 µM	> 10.1 µM	> 12.5 µM	> 11.4 µM	> 12.5 µM	1.28 µM	> 10.8 µM	> 12.5 µM	> 11.1 µM	> 12.5 µM									
COC(=O)c1ccccc1C1=C([N+](=O)[O-])C(c2cccc(Br)c2)C(C#N)=C(N)O1 (stereo not drawn)	77.5 µM	> 100 µM	63.2 µM	> 100 µM	> 100 µM	> 100 µM	65.9 µM	> 100 µM	> 100 µM	> 100 µM										
COc1ccc(/C=C2\N=C(c3ccccc3)OC2=O)cc1OC(C)=O	> 100 µM	> 100 µM	> 100 µM	> 100 µM	> 100 µM	45 µM	> 100 µM	> 100 µM	> 100 µM	> 100 µM	> 100 µM									
